Measured values as given in paper PMC4464647, “ANO1 (TMEM16A) in pancreatic ductal adenocarcinoma (PDAC)” (Pflugers Archiv, 2014).

Key:
Type in all cases: cell-based, human
[1] = tested on: VRAC; experiment: Whole-cell patch-clamp of swelling-activated (VRAC) currents, hypotonic bath, 0 μM Ca2+ pipette; conditions: HPDE and BxPC-3 cells, inhibitor 20 μM, Vm = +65 mV
Description: Cells were grown on poly-L-lysine coated coverslips. For knockdown experiments, cells were transfected with siRNA targeting ANO1 or scrambled siRNA shortly after complete attachment of the cells (approx. 3 h after plating). Currents were measured 36–48 h after transfection. Whole-cell patch-clamp recordings were performed using the Axopatch 200B amplifier interfaced to a Digidata 1440A controlled by pClamp10 software (Molecular Devices, USA). Analogue signals were acquired at 2.5 kHz and filtered at 1 kHz. […] An agar bridge made of 3 % agar and 97 % of the bath solution containing NMDG-Cl (below) was used as reference electrode. Current activations were recorded from an output holding potential, V out = 0 mV with ramp protocols spanning from −100 to 100 mV over 1 s and run continuously with 15-s intervals. […] Liquid junction potentials (V lj) were estimated as described in [10] with membrane potentials calculated as, V m = V out − V lj. […] Instantaneous currents were measured 1 ms after each voltage step. […]
One micromolar free Ca^2+ pipette solution include the following (in mM): 100 CsAsp, 40 CsCl, 4.34 CaCl2, 4 Na2ATP, 1 MgCl2, 5 EGTA, 10 HEPES, pH 7.2, osmolality 295 mosmol/kg or 0 μM free Ca^2+ solution containing no CaCl2 and 10 mM EGTA. […] All osmolalities were measured in a Wescor Vapro model 5520 osmometer (Wescor Inc., USA) calibrated by the manufacturer’s Optimol standard solutions. […]

[2] = tested on: BxPC-3 cells; experiment: Fura-2 measurement of free intracellular calcium, ATP stimulation; conditions: for effect on basal [Ca2+]i: BxPC-3, inhibitor 20 μM
Description: (§1) HPDE and BxPC-3 cells were incubated with 2 μM Fura-2 AM (Sigma-Aldrich, Denmark) for 30 min at 37 °C. Cells were subsequently washed with Krebs solution containing (in mM) 150 NaCl, 6 KCl, 1.5 CaCl2, 1 MgCl2, 10 glucose, and 10 HEPES; pH was adjusted to 7.4 using NaOH. Coverslips were mounted on a recording chamber. In the beginning of the experiment, cells were perfused with Krebs solution at 4 ml/min until baseline was stable. […] Changes in [Ca^2+]i were measured by a TIRF iMIC microscope (TILL Photonics, Germany). Fura-2 AM loaded cells were illuminated at 340 nm for 80 ms and 380 nm for 80 ms at 1 s intervals using a TILL Polychrome monochromator. Five hundred-nanometer emission images were captured by an image-intensifying, charge-coupled device (CCD) camera (TILL Photonics, Germany) and digitized by an image processing system (TILL Photonics, Germany). The monochromator and CCD camera were controlled by LA Live Acquisition software, which was also used for image analysis. The [Ca^2+]i was presented as the Fura-2 ratio of the fluorescence signals obtained at 340/380 nm.
(§2) Fig. 8 Cl^− channel inhibitors alter ATP-induced Ca^2+ signals. Intracellular Ca^2+ measurements in FURA-2 loaded HPDE and BxPC-3 cells. a Representative single-cell traces of individual experiments. Different substances were applied as indicated. […] (n) = number of individual experiments; each containing between 5–45 single cells.***p ≤ 0.001 when compared to no inhibitor condition; ^## p ≤ 0.01 when compared with HPDE no inhibitor
(§3) Activation of CaCC requires an increase in [Ca^2+]i, which can be achieved by stimulation of receptors such as purinergic receptors. Therefore, we studied the effect of Cl^− channel inhibitors on changes in [Ca^2+]i induced by purinergic signaling. We chose HPDE cells with very low expression levels of ANO1 and the highly ANO1 overexpressing cell line BxPC-3 for investigation. Fura-2 loaded HPDE and BxPC-3 cells were stimulated with ATP (10 μM) (Fig. 8) or exposed to the inhibitor prior to stimulation. ATP stimulation caused a 0.46 ± 0.03 peak increase in the Fura-2 ratio in HPDE and 0.55 ± 0.02 in BxPC-3 cells. […] However, no effect of the inhibitor on basal Ca^2+ level was observed.

[3] = tested on: HPDE cells; experiment: as above; conditions: for effect on basal [Ca2+]i: inhibitor 20 μM
Description: as §1, §2, §3

| Structure (SMILES) | effect on VRAC currents [1] | effect on basal [Ca2+]i [2] | effect on basal [Ca2+]i [3] | ATP-induced change in Fura-2 ratio after inhibitor ([2]; BxPC-3, inhibitor 20 μM before ATP 10 μM) | ATP-induced change in Fura-2 ratio after inhibitor ([3]; inhibitor 20 μM before ATP 10 μM) |
| --- | --- | --- | --- | --- | --- |
| CC(C)(C)C1CCc2c(sc(NC(=O)c3ccco3)c2C(=O)O)C1 (centres unmarked) [CaCCinh-A01, 6-(1,1-dimethylethyl)-2-[(2-furanylcarbonyl)amino]-4,5,6,7-tetrahydrobenzo[b]thiophene-3-carboxylic acid] | Neither T16Ainh-A01 nor CaCCinh-A01 inhibited the VRAC currents significantly | reversible increase | reversible increase |  |  |
| CCc1c(C)nc(SCC(=O)Nc2nc(-c3ccc(OC)cc3)cs2)[nH]c1=O [T16Ainh-A01, 2-[(5-Ethyl-1,6-dihydro-4-methyl-6-oxo-2-pyrimidinyl)thio]-N-[4-(4-methoxyphenyl)-2-thiazolyl]acetamide] | Neither T16Ainh-A01 nor CaCCinh-A01 inhibited the VRAC currents significantly | no effect | no effect | 0.42 ± 0.03 | 0.32 ± 0.03 |
